Data on 1 compound can be found in patent publication US11479533B2, “Inhibitors of Rho associated coiled-coil containing protein kinase” (KADMON CORPORATION, LLC, priority 2017, dated 2022).

The nature of data set [1]: Brain and plasma concentrations in mouse by HPLC/MS/MS. In kind it is in vivo. The settings on record: 2.5 mg/kg IV. As for the experimental part:
Brain and plasma concentrations of select ROCK inhibitors were evaluated in mouse by HPLC/MS/MS at 15 min and 2 hrs following 2.5 mg/kg IV drug administration.

In data set [2] the target is recombinant ROCK1 (amino acids 1-535) (Homo sapiens (Human), UniProt Q13464). Description: Z'-lyte kinase assay, ROCK1. Type of data set: biochemical. The method, then:
Determination of compounds ROCK inhibitory activity in vitro (Z'lyte assay): recombinant ROCK1 (amino acids 1-535) and ROCK2 (amino acids 1-552) proteins were purchased from ThermoFisher Scientific. Compounds activities were measured by Z'-lyte kinase kit (ThermoFisher Scientific) and IC50s were calculated.
Compounds activities were measured by Z'-lyte kinase kit (ThermoFisher Scientific). […] IC50s were calculated using the GraphPad Prism software with kinase activities data that were collected from 9 points serial dilution of compounds treatment. The ROCK inhibition in A7R5 cells and NIH3T3 (Acta2-Luc) cells was performed as described above.
The percent inhibition rate was calculated by normalizing the kinase activity value obtained with compound treatment against DMSO control value and then applied to the equation, […]. IC50's were calculated using the nonlinear regression curve fit function of the GraphPad Prism software with kinase activities data measured with 9 points 2-fold serial dilution of compounds treatment.

Data set [3] deals with human oligodendrocyte/neuron progenitor cells. Description: Neurite outgrowth and differentiation of human oligodendrocyte/neuron progenitors. In kind it is cell-based. The method, then:
Thawing and proliferation of human oligodendrocyte/neuron progenitor cells (OPCs). Cryopreserved human oligodendrocyte/neuron progenitors (Millipore Cat. No. CS204496) were recovered and cultured on maltrigel (BD Cat. No. 356324) coated T-25 flask in expansion media containing OPC/neuron basal medium, N21 medium supplement, recombinant human bFGF, PDGF-AA and NT-3. When cells reached 80% confluent, 3 ml of Accutase was applied (Millipore SCR005) to passage cells at 1:4 ratio. Sub-cultured cells were maintained in expansion media for proliferation.
Spontaneous differentiation of human oligodendrocyte/neuron progenitors in 24-well and 96-well plates. Coat plate with 10 μg/ml poly-L-ornithine (Sigma Cat. No. P4957) overnight at room temperature. Remove the poly-L-ornithine solution and rinse the plate with 1×PBS, add 10 μg/ml laminin (Millipore Cat. No. CC095) and incubate at 37° C. for at least 2 hours. Seed cells on the coated plates in expansion media and allowed to attach overnight. The next day expansion media was removed and replaced with freshly prepared spontaneous differentiation media only containing OPC/neuron basal media and N21 media supplement. For 14 day culture, differentiation media was replaced every 3-4 days. Cells were imaged and neurite length was analyzed by IncuCyte S3 Live Cell Analysis System every 4 hours. After 14 days of differentiation, cells were fixed by 4% paraformaldehyde and stained with DAPI and Neuron-specific ß-III tubulin antibody (R&D systems, NL1195R).

Data set [4] relates to ppMlc (T18/S19) levels in A7R5 cells. Put plainly: A7R5 in-cell ELISA assay (ppMlc). In kind it is cell-based, rat. The note with it: Rattus norvegicus, A7R5, A7R5 cells. In short, it runs like this: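 Rat aortic smooth muscle A7R5 cells in DMEM with 10% FBS, seeded 24 h, then treated 90 min with 9-point 2-fold compound dilutions. ppMlc (T18/S19) measured by colorimetric in-cell ELISA; cellular IC50 from nonlinear regression curve fit.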
On the technique in general: An ELISA detects its analyte on a solid surface through an enzyme-linked reagent.

In data set [5] the test system is human oligodendrocyte/neuron progenitor cells. Put plainly: Chondroitin Sulfate Proteoglycan (CSPG) assay on human oligodendrocyte/neuron progenitors. In kind it is cell-based. The settings on record: 1 μM and 3 μM, 72 hour. The method, then: Chondroitin Sulfate Proteoglycan (CSPG) assay on human oligodendrocyte/neuron progenitors in 96-well plate. […] Cells were seeded on the coated plates at a density of 6,000 cells per well in expansion media. The following day the expansion media was replaced with fresh spontaneous differentiation media containing testing compounds. Cells were imaged and neurite length was analyzed by IncuCyte S3 Live Cell Analysis System every 4 hours.

The test system is the same in data set [6]. Put plainly: Aβ 1-42 induced cell death assay on human oligodendrocyte/neuron progenitors. In kind it is cell-based. The note with it: 3 μM, 10.5 μM Aβ1-42, 24 hour. The method, then: Aβ 1-42 induced cell death assay on human oligodendrocyte/neuron progenitors in 96-well plate. Cells were seeded on poly-L-ornithine and laminin coated plates at a density of 8,000 cells per well and maintained in expansion media until Day 3, then media was replaced with fresh spontaneous differentiation media containing testing compounds and IncuCyte Annexin V Red Reagent (1:200 dilution) (Essen BioScience Cat. No. 4641). After the pre-incubation period of 30 minutes at 37° C., 10.5 μM Aβ 1-42 (Bachem Product No. H-8146) was added directly in the pretreatment solution. Neurite length and total Annexin V positive area were analyzed by IncuCyte S3 Live Cell Analysis System every 2 hours.
In addition to promoting neuroregeneration, ROCK inhibitors have been reported to exert neuroprotective effects and prolong neuronal survival. Here we test the neuroprotective effect of ROCK inhibitors against Aβ1-42. Human oligodendrocyte/neuron progenitor cells were pre-incubated with ROCK inhibitors for 30 minutes before exposing to 10.5 μM Aβ1-42. IncuCyte Annexin V Red Reagent was added to culture media to label cell apoptosis. Pictures were taken by IncuCyte S3 and total Annexin V positive area was analyzed by IncuCyte S3 base software. Neurite length was quantified by IncuCyte NeuroTrack Software Module, see FIGS. 3b and 3c.

Read-outs that look alike come from different tables or passages of the source.

recombinant ROCK1 (amino acids 1-535), sequence (Q13464 1-535): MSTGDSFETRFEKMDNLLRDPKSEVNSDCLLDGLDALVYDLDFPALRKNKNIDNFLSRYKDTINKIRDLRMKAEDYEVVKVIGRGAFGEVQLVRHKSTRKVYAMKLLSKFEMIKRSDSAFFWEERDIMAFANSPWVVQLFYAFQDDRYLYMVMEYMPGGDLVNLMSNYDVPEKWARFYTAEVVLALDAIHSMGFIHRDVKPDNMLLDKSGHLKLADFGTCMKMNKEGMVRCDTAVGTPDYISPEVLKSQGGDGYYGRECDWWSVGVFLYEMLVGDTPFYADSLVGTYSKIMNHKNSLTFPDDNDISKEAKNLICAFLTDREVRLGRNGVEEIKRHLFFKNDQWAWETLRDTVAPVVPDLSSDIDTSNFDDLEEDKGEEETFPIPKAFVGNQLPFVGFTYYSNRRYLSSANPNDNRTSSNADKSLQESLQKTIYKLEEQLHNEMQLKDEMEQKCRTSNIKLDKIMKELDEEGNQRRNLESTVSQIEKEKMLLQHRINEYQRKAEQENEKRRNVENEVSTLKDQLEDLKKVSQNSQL

In general, IC50 refers to the concentration that gives 50% inhibition. As for `CNC(C(=O)Nc1ccc(-c2cn[nH]c2)cc1)c1cccc(OC)c1` (stereo not shown) [Example 2, N-(4-(1H-pyrazol-4-yl)phenyl)-2-(3-methoxyphenyl)-2-(methylamino)acetamide], the concentration at 0.25 hr in data set [1] (brain, 0.25 hr, read-out: Mean Conc. at 0.25 hr, Brain) worked out at 541 ng/g; in data set [1] (plasma, 0.25 hr, read-out: Mean Conc. at 0.25 hr, Plasma) it was 268 ng/mL. The concentration at 2 hr in data set [1] (brain, 2 hr, read-out: Mean Conc. at 2 hr, Brain) is 76.6 ng/g; in data set [1] (plasma, 2 hr, read-out: Mean Conc. at 2 hr, Plasma) it was 25.7 ng/mL. In data set [1] (brain/plasma, 0.25 hr, read-out: Mean Brain/Plasma Ratio at 0.25 hr), the Kp at 0.25 h stood at 2.01. In addition, the Kp at 2 h in data set [1] (brain/plasma, 2 hr, read-out: Mean Brain/Plasma Ratio at 2 hr) was 2.99. Further, the IC50 in data set [2] was determined as 17 nM; in data set [4] (Table 2, read-out: pMLC IC50 (nM) A7R5) it was 120 nM; in data set [4] (ppMlc (T18/S19), in-cell ELISA, read-out: ppMlc IC50), 86 nM. Besides, the “neuronal differentiation and maturation” value in data set [3] (14 days culture, Beta III tubulin) is “facility neuronal differentiation and maturation”. Moreover, the neurite length entry in data set [3] (various concentrations, 3 days culture) is listed as “significantly increase neurite length”. In addition, the “CSPG mediated neurite outgrowth arrest” value in data set [5] is recorded as “significantly counteract”. Besides, the “Aβ1-42 induced cell death (Annexin V area)” value in data set [6] was “significantly protect”.
